ChEMBL document CHEMBL4321812, “Structure-based rational design of staurosporine-based fluorescent probe with broad-ranging kinase affinity for kinase panel application” (Bioorg Med Chem Lett, 2019)

Columns and labels:
[1] = molecular target: High affinity nerve growth factor receptor (Homo sapiens, UniProt P04629); assay: Binding affinity to recombinant full-length N-terminal His-FLAG-GST-tagged NTRK1 (unknown origin) (436 to 790 residues) expressed in baculovirus infected Sf9 insect cells incubated for 1 hr by TR-FRET assay
[2] = molecular target: Protein-tyrosine kinase 2-beta (Homo sapiens, UniProt Q14289); assay: Binding affinity to recombinant full-length N-terminal His-FLAG-tagged PTK2B (unknown origin) expressed in baculovirus infected Sf9 insect cells incubated for 1 hr by TR-FRET assay
Angiopoietin-1 receptor = Angiopoietin-1 receptor (Homo sapiens, UniProt Q02763); assay: Binding affinity to recombinant full-length N-terminal His-FLAG-GST-tagged TEK (unknown origin) (771 to 1124 residues) expressed in baculovirus infected Sf9 insect cells incubated for 1 hr by TR-FRET assay
[3] = molecular target: Interleukin-1 receptor-associated kinase 1 (Homo sapiens, UniProt P51617); assay: Binding affinity to recombinant N-terminal His-FLAG-GST-tagged IRAK1 (unknown origin) (194 to 712 residues) expressed in baculovirus infected Sf9 insect cells incubated for 1 hr by TR-FRET assay
[4] = molecular target: Serine/threonine-protein kinase PAK 4 (Homo sapiens, UniProt O96013); assay: Binding affinity to recombinant human full-length N-terminal GST-tagged PAK4 expressed in baculovirus expression system using SGKtide as substrate incubated for 1 hr by TR-FRET assay
Insulin receptor = Insulin receptor (Homo sapiens, UniProt P06213); assay: Binding affinity to recombinant full-length N-terminal His-FLAG-GST-tagged INSR (unknown origin) (1005 to 1310 residues) expressed in baculovirus infected Sf9 insect cells incubated for 1 hr by TR-FRET assay
[5] = molecular target: Serine/threonine-protein kinase LATS2 (Homo sapiens, UniProt Q9NRM7); assay: Binding affinity to recombinant full-length N-terminal His-FLAG-GST-tagged LATS2 (unknown origin) (553 to 1088 residues) expressed in baculovirus infected Sf9 insect cells incubated for 1 hr by TR-FRET assay
[6] = molecular target: 3-phosphoinositide-dependent protein kinase 1 (Homo sapiens, UniProt O15530); assay: Binding affinity to recombinant full-length N-terminal His-FLAG-GST-tagged PDPK1 (unknown origin) expressed in baculovirus infected Sf9 insect cells incubated for 1 hr by TR-FRET assay
[7] = molecular target: Death-associated protein kinase 3 (Homo sapiens, UniProt O43293); assay: Binding affinity to recombinant full-length N-terminal His-FLAG-GST-tagged DAPK3 (unknown origin) expressed in baculovirus infected Sf9 insect cells incubated for 1 hr by TR-FRET assay
[8] = molecular target: Serine/threonine-protein kinase ULK3 (Homo sapiens, UniProt Q6PHR2); assay: Binding affinity to recombinant full-length N-terminal His-FLAG-GST-tagged ULK3 (unknown origin) expressed in baculovirus infected Sf9 insect cells incubated for 1 hr by TR-FRET assay
[9] = molecular target: Tyrosine-protein kinase Fyn (Homo sapiens, UniProt P06241); assay: Binding affinity to recombinant full-length N-terminal His-FLAG-tagged FYN (unknown origin) expressed in baculovirus infected Sf9 insect cells incubated for 1 hr by TR-FRET assay
[10] = molecular target: Homeodomain-interacting protein kinase 3 (Homo sapiens, UniProt Q9H422); assay: Binding affinity to recombinant N-terminal His-FLAG-GST-tagged HIPK3 (unknown origin) (161 to 562 residues) expressed in baculovirus infected Sf9 insect cells incubated for 1 hr by TR-FRET assay
[11] = molecular target: Tyrosine-protein kinase ITK/TSK (Homo sapiens, UniProt Q08881); assay: Binding affinity to recombinant human full-length N-terminal GST-tagged ITK expressed in baculovirus expression system using srctide as substrate incubated for 1 hr by TR-FRET assay
[12] = molecular target: Protein kinase C zeta type (Homo sapiens, UniProt Q05513); assay: Binding affinity to recombinant full-length N-terminal His-FLAG-GST-tagged PRKCZ (unknown origin) expressed in baculovirus infected Sf9 insect cells incubated for 1 hr by TR-FRET assay
[13] = molecular target: Non-receptor tyrosine-protein kinase TYK2 (Homo sapiens, UniProt P29597); assay: Binding affinity to recombinant N-terminal His-FLAG-GST-tagged TYK2 (unknown origin) (871 to 1187 residues) expressed in baculovirus infected Sf9 insect cells incubated for 1 hr by TR-FRET assay
[14] = molecular target: Ribosomal protein S6 kinase alpha-6 (Homo sapiens, UniProt Q9UK32); assay: Binding affinity to recombinant full-length N-terminal His-FLAG-tagged RPS6KA6 (unknown origin) expressed in baculovirus infected Sf9 insect cells incubated for 1 hr by TR-FRET assay
[15] = molecular target: Dual specificity protein kinase CLK4 (Homo sapiens, UniProt Q9HAZ1); assay: Binding affinity to recombinant human full length N-terminal GST-tagged CLK4 expressed in baculovirus expression system incubated for 1 hr by TR-FRET assay
CDK7/Cyclin H/MNAT1 = CDK7/Cyclin H/MNAT1 (Homo sapiens, UniProt P50613); assay: Binding affinity to recombinant human full length N-terminal GST-tagged and N-terminal GST-tagged CDK7/cyclinH/MAT1 expressed in baculovirus expression system using CTD3 peptide as substrate incubated for 1 hr by TR-FRET assay
[16] = molecular target: ALK tyrosine kinase receptor (Homo sapiens, UniProt Q9UM73); assay: Binding affinity to recombinant human […] N-terminal GST-tagged ALK (1058 to 1620 residues) expressed in baculovirus expression system using Srctide as substrate incubated for 1 hr by TR-FRET assay
[17] = molecular target: AP2-associated protein kinase 1 (Homo sapiens, UniProt Q2M2I8); assay: Binding affinity to recombinant full-length N-terminal His-FLAG-GST-tagged AAK1 (unknown origin) expressed in baculovirus infected Sf9 insect cells incubated for 1 hr by TR-FRET assay
[18] = molecular target: Tyrosine-protein kinase BTK (Homo sapiens, UniProt Q06187); assay: Binding affinity to recombinant human full-length N-terminal GST-tagged BTK expressed in baculovirus expression system using srctide as substrate incubated for 1 hr by TR-FRET assay
[19] = molecular target: Tyrosine-protein kinase Blk (Homo sapiens, UniProt P51451); assay: Binding affinity to recombinant human full length N-terminal GST-tagged BLK expressed in baculovirus expression system using srctide as substrate incubated for 1 hr by TR-FRET assay
[20] = molecular target: Protein kinase C beta type (Homo sapiens, UniProt P05771); assay: Binding affinity to recombinant full-length N-terminal His-FLAG-tagged PRKCB (unknown origin) expressed in baculovirus infected Sf9 insect cells incubated for 1 hr by TR-FRET assay
[21] = molecular target: Calcium/calmodulin-dependent protein kinase kinase 1 (Homo sapiens, UniProt Q8N5S9); assay: Binding affinity to recombinant full-length N-terminal His-FLAG-GST-tagged CAMKK1 (unknown origin) expressed in baculovirus infected Sf9 insect cells incubated for 1 hr in presence of calmodulin by TR-FRET assay
[22] = molecular target: Protein kinase C eta type (Homo sapiens, UniProt P24723); assay: Binding affinity to recombinant full-length N-terminal His-FLAG-GST-tagged PRKCH (unknown origin) expressed in baculovirus infected Sf9 insect cells incubated for 1 hr by TR-FRET assay
Sequence of Protein kinase C eta type (P24723 whole entry): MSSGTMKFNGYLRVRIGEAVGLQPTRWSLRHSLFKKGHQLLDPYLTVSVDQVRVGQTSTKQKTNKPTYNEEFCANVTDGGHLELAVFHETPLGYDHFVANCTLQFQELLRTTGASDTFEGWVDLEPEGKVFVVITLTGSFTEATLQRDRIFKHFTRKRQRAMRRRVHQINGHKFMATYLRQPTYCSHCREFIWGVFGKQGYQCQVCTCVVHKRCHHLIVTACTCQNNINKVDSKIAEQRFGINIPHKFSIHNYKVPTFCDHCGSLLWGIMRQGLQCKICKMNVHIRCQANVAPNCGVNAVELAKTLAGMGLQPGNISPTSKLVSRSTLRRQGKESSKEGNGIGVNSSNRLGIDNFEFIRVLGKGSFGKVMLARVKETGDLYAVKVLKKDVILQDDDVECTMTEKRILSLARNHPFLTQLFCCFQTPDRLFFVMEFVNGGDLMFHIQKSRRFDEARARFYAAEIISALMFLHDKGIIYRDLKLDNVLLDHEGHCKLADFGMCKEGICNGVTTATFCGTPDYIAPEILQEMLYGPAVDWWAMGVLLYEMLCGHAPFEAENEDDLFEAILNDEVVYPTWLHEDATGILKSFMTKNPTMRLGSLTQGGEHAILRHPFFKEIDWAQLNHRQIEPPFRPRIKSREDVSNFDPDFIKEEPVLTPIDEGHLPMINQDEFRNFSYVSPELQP

Sequence of Serine/threonine-protein kinase PAK 4 (O96013 whole entry, the tested form may be a part): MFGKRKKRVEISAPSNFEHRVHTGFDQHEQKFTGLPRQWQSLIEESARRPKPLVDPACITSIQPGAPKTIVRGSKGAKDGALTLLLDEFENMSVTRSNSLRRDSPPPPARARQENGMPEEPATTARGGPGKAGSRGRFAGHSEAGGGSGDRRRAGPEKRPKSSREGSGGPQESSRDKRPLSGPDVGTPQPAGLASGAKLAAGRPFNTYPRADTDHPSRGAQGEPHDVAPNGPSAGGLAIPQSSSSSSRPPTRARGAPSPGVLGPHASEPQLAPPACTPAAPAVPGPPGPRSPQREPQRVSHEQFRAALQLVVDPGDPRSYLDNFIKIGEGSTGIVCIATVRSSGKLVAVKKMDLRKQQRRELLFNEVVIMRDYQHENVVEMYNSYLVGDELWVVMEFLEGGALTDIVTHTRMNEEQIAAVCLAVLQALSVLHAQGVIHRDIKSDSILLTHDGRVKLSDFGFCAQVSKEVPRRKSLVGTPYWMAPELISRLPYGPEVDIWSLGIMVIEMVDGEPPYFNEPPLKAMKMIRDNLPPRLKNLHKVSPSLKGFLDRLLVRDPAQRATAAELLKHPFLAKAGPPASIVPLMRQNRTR
Sequence of ALK tyrosine kinase receptor (Q9UM73 whole entry, the tested form may be a part): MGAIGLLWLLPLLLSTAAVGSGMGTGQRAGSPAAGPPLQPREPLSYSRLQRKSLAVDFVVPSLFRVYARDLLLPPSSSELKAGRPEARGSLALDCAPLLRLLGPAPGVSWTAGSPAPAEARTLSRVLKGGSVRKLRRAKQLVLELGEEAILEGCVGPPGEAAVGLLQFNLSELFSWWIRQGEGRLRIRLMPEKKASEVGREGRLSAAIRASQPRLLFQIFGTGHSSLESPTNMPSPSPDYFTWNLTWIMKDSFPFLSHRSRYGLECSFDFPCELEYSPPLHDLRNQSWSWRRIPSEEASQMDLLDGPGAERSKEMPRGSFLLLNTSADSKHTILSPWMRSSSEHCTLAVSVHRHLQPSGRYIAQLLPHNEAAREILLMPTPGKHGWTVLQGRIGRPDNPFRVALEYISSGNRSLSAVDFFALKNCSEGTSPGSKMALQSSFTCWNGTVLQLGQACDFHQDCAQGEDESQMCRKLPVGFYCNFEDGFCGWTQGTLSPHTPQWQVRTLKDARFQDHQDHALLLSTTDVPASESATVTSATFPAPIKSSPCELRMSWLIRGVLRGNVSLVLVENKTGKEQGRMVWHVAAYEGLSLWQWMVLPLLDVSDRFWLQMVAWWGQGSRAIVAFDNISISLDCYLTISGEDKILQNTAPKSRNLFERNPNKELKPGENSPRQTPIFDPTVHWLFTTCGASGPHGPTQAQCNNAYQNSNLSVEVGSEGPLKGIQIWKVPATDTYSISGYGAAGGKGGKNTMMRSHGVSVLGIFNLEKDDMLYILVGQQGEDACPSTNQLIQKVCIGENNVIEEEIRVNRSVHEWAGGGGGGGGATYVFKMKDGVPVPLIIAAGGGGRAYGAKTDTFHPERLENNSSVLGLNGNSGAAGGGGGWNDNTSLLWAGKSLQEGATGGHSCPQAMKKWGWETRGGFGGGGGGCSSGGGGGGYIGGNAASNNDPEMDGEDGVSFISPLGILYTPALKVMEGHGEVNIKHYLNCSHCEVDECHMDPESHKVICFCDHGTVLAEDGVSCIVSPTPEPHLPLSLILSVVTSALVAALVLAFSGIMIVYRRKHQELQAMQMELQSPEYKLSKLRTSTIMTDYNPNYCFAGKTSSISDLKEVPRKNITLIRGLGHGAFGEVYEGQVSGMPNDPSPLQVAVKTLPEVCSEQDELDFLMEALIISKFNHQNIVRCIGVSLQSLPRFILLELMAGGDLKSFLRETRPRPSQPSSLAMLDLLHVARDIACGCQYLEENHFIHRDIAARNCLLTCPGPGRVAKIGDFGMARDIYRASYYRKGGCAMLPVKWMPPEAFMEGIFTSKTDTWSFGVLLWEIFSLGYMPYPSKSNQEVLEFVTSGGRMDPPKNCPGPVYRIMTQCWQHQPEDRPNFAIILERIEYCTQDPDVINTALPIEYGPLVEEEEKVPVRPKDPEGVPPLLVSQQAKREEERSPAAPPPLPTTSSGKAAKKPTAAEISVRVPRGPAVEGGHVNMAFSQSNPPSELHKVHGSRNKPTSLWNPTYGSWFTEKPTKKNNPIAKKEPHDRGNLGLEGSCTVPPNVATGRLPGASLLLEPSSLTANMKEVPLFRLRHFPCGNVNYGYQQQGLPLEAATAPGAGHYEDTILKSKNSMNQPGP
Sequence of Homeodomain-interacting protein kinase 3 (Q9H422 whole entry, the tested form may be a part): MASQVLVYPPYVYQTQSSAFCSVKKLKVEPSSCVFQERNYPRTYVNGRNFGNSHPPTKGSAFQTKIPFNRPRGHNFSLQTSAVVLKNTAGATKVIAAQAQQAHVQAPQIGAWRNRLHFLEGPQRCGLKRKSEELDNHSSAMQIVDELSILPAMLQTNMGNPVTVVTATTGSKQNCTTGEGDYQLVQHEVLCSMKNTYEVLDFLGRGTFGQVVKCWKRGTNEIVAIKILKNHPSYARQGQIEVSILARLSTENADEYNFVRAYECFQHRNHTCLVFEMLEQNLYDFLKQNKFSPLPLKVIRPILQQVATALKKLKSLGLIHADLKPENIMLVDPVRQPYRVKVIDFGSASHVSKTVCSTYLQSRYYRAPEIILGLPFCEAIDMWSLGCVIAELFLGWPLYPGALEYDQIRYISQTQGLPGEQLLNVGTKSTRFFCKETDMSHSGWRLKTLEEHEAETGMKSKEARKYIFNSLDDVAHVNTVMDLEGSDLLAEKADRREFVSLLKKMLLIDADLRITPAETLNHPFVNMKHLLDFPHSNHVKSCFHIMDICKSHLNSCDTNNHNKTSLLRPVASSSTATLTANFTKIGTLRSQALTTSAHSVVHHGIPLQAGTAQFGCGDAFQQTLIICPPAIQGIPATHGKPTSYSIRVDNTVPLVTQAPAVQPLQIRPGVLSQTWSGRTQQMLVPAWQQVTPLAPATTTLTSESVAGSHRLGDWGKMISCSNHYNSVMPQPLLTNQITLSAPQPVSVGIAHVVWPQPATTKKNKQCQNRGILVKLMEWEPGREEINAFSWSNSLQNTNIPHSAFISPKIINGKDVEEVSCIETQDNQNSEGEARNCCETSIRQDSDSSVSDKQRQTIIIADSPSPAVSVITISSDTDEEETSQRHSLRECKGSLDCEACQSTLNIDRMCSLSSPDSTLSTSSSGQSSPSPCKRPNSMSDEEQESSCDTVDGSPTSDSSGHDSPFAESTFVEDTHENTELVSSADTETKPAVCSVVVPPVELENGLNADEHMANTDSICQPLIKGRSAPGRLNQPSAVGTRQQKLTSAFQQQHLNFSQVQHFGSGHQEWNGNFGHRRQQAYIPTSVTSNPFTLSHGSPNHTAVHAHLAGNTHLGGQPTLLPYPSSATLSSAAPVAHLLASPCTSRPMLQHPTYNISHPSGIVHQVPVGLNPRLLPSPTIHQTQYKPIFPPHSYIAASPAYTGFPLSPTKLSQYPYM
Sequence of Calcium/calmodulin-dependent protein kinase kinase 1 (Q8N5S9 whole entry): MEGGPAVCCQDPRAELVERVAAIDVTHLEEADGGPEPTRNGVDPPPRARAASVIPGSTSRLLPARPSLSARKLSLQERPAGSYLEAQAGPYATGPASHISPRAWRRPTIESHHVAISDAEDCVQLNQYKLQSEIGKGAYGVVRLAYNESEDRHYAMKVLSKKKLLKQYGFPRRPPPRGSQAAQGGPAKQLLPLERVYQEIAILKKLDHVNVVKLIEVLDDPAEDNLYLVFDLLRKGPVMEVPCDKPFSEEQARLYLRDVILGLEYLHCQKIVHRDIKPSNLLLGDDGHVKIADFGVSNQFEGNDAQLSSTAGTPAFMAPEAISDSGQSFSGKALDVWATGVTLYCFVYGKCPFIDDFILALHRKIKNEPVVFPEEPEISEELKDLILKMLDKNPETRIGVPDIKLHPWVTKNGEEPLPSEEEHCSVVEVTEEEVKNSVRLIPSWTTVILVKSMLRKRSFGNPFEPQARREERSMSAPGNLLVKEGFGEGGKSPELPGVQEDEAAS
Sequence of Dual specificity protein kinase CLK4 (Q9HAZ1 whole entry): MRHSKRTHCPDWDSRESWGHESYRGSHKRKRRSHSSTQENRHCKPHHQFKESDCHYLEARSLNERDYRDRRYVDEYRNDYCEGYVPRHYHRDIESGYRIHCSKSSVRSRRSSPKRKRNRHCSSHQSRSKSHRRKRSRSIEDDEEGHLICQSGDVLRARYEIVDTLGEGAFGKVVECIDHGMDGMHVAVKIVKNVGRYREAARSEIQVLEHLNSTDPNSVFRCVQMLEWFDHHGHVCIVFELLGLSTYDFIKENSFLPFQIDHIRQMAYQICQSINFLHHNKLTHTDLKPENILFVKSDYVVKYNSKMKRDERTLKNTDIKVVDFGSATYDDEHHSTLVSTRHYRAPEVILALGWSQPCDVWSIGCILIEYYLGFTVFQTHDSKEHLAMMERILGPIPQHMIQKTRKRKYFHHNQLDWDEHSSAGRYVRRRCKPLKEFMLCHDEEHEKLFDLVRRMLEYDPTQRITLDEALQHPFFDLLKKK

| Structure (SMILES) | Kd [1] | Kd [2] | Kd (Angiopoietin-1 receptor) | Kd [3] | Kd [4] | Kd (Insulin receptor) | Kd [5] | Kd [6] | Kd [7] | Kd [8] | Kd [9] | Kd [10] | Kd [11] | Kd [12] | Kd [13] | Kd [14] | Kd [15] | Kd (CDK7/Cyclin H/MNAT1) | Kd [16] | Kd [17] | other results |
| --- | --- | --- | --- | --- | --- | --- | --- | --- | --- | --- | --- | --- | --- | --- | --- | --- | --- | --- | --- | --- | --- |
| CO[C@@H]1[C@H](NCCOCCOCCOCCNC(=O)CCC2=[N+]3C(=Cc4c(C)cc(C)n4[B-]3(F)F)C=C2)C[C@H]2O[C@]1(C)n1c3ccccc3c3c4c(c5c6ccccc6n2c5c31)C(=O)NC4 | 35 nM | 59 nM | 395 nM | 299 nM | 5 nM | 1860 nM | 135 nM | 8 nM | 41 nM | 16 nM | 267 nM | 798 nM | 379 nM | 1250 nM | 8 nM | 21 nM | 90 nM | 894 nM | 230 nM | 6 nM | Kd [18]: 374 nM; Kd [19]: 63 nM; Kd [20]: 65 nM; Kd [21]: 11 nM; Kd [22]: 61 nM |
| CO[C@@H]1[C@H](N(C)CCOCCOCCOCCNC(=O)CCC2=[N+]3C(=Cc4c(C)cc(C)n4[B-]3(F)F)C=C2)C[C@H]2O[C@]1(C)n1c3ccccc3c3c4c(c5c6ccccc6n2c5c31)C(=O)NC4 | 25 nM | 73 nM | 408 nM | 609 nM | 6 nM | 1690 nM | 223 nM | 8 nM | 25 nM | 14 nM | 322 nM | 1030 nM | 765 nM | 1350 nM | 49 nM | 14 nM | 81 nM | 819 nM | 172 nM | 5 nM | Kd [18]: 437 nM; Kd [19]: 45 nM; Kd [20]: 17 nM; Kd [21]: 14 nM; Kd [22]: 37 nM |
